Drawing on ChEMBL document CHEMBL3585316, “Discovery, bioactivity and docking simulation of Vorinostat analogues containing 1,2,4-oxadiazole moiety as potent histone deacetylase inhibitors and antitumor agents” (Bioorg Med Chem, 2015), this text covers IC50 for 32 molecules.

One test has as its target Histone deacetylase 2 (Homo sapiens, UniProt Q92769). Put plainly: Inhibition of recombinant HDAC2 (unknown origin) incubated for 10 mins using Boc-Lys(acetyl)-AMC fluorogenic substrate by homogeneous fluorescence release assay.
A further test has as its target Histone deacetylase 1 (Homo sapiens, UniProt Q13547). Put plainly: Inhibition of recombinant HDAC1 (unknown origin) incubated for 10 mins using Boc-Lys(acetyl)-AMC fluorogenic substrate by homogeneous fluorescence release assay.
Another test addresses T1, Histone deacetylase 8 (Homo sapiens, UniProt Q9BY41).
T1 sequence (Q9BY41 whole entry): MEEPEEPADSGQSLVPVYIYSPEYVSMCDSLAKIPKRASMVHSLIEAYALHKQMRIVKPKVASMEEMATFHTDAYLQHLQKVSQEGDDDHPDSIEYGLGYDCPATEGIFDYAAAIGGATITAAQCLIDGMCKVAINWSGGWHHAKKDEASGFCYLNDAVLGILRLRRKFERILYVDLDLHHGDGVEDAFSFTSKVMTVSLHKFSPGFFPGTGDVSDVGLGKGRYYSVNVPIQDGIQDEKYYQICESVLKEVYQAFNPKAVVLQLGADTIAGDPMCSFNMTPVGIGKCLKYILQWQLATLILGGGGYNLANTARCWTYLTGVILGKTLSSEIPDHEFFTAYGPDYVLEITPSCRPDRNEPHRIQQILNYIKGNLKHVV
Put plainly: Inhibition of recombinant HDAC8 (unknown origin) incubated for 10 mins using Boc-Lys(acetyl)-AMC fluorogenic substrate by homogeneous fluorescence release assay.

The subject of another test is NCI-H661. Put plainly: Antiproliferative activity against human NCI-H661 cells incubated for 72 hrs by MTT assay. Format: functional, cell-based. The conditions noted are these: NCI-H661, 72 h. For orientation: Tetrazolium dyes change colour on reduction, which living cells bring about.
The next test has as its system A549. Description: cells. The conditions noted are these: Homo sapiens, A549, 72 h.
The next test has as its system U-937. Put plainly: Antiproliferative activity against human U937 cells incubated for 72 hrs by MTT assay. Format: functional, cell-based. The conditions noted are these: U-937, 72 h.

Histone deacetylase 1, sequence (Q13547 whole entry): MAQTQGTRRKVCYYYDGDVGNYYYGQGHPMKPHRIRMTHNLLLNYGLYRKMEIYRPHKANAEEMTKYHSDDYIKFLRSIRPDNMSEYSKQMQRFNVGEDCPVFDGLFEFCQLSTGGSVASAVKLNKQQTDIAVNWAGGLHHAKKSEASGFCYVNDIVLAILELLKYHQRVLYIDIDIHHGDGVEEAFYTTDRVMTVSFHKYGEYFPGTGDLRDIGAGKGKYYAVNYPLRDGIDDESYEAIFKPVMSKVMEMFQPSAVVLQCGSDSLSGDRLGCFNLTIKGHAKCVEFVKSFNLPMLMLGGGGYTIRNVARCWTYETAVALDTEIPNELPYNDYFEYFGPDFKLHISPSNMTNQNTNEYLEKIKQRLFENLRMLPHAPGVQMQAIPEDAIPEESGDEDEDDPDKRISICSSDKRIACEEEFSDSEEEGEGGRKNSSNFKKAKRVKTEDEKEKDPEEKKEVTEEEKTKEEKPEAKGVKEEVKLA
Histone deacetylase 2, sequence (Q92769 whole entry): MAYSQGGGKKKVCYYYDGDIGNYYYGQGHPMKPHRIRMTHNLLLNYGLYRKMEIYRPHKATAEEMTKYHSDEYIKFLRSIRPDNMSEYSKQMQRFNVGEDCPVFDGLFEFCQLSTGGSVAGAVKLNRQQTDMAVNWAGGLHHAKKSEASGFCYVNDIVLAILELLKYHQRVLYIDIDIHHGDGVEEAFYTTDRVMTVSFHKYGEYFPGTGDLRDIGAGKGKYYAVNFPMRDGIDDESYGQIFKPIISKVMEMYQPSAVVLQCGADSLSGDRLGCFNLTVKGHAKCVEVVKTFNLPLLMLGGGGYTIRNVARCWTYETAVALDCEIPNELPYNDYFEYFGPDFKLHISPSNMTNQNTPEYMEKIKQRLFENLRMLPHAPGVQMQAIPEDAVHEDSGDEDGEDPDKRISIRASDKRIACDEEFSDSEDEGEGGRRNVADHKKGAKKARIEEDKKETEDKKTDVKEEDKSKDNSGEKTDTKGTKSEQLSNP
Description for A549: Antiproliferative activity against human A549 cells incubated for 72 hrs by MTT assay

`O=C(CCCCCCc1nc(-c2ccccc2Cl)no1)C(F)(F)F`: the concentration for half-maximal inhibition (IC50) on Histone deacetylase 2 is 1.58 µM; on Histone deacetylase 1, 7.65 µM; at Histone deacetylase 8, 0.71 µM; in the test with NCI-H661, 1.25 µM; in the test on A549 it was 6.16 µM; in the test on U-937 it was 0.92 µM.

`O=C(CCCCCCc1nc(-c2ccccc2)no1)NO`: the 50% inhibitory concentration (IC50) was 1.17 µM on Histone deacetylase 2; 0.38 µM on Histone deacetylase 1; 2.05 µM on Histone deacetylase 8; 17.3 µM in the test on NCI-H661; 7.08 µM in the test with A549; 1.25 µM in the test with U-937.

For `Cc1ccc(-c2noc(CCCCCCC(=O)NO)n2)cc1`, the half-maximal inhibitory concentration (IC50) was 2.78 µM at Histone deacetylase 2; 0.49 µM at Histone deacetylase 1; 5.39 µM at Histone deacetylase 8; 15.8 µM with NCI-H661; 5.81 µM in the test with A549; 1.36 µM with U-937.

Take `COc1ccc(-c2noc(CCCCCCC(=O)NO)n2)cc1`: the IC50 on Histone deacetylase 2 was more than 10 µM; on Histone deacetylase 1 it was 2.18 µM; on Histone deacetylase 8, more than 10 µM; in the test with NCI-H661, 20.4 µM; in the test with A549, 13.5 µM; with U-937, 3.65 µM.

With `O=C(CCCCCCc1nc(-c2ccc(C(F)(F)F)cc2)no1)NO`, the IC50 is 7.93 µM on Histone deacetylase 2; 1.92 µM on Histone deacetylase 1; more than 10 µM at Histone deacetylase 8; 15.3 µM with NCI-H661; 14 µM with A549; 2.87 µM in the test on U-937.

Consider `O=C(CCCCCCc1nc(-c2ccc(F)cc2)no1)NO`, for which the half-maximal inhibitory concentration (IC50) on Histone deacetylase 2 worked out at 6.26 µM; at Histone deacetylase 1 it was 1.15 µM; at Histone deacetylase 8 it was 8.76 µM; in the test with NCI-H661, 19.4 µM; with A549, 5.77 µM; in the test with U-937 it was 1.93 µM.

Regarding `O=C(CCCCCCc1nc(-c2ccc(Cl)cc2)no1)NO`, the IC50 was 5.19 µM at Histone deacetylase 2; 0.68 µM on Histone deacetylase 1; more than 10 µM at Histone deacetylase 8; 17.3 µM in the test on NCI-H661; 11.9 µM in the test with A549; 0.98 µM in the test on U-937.

Turning to `O=C(CCCCCCc1nc(-c2ccccc2Cl)no1)NO`, the half-inhibitory concentration (IC50) on Histone deacetylase 2 was 1.25 µM; on Histone deacetylase 1, 0.19 µM; at Histone deacetylase 8 it was 3.65 µM; in the test with NCI-H661 it was 10.3 µM; in the test on A549, 8.87 µM; in the test on U-937, 0.75 µM.

For the molecule `O=C(CCCCCCc1nc(-c2ccc([N+](=O)[O-])cc2)no1)NO`, the half-inhibitory concentration (IC50) at Histone deacetylase 2 is 0.23 µM; on Histone deacetylase 1 it was 0.07 µM; at Histone deacetylase 8, 2.56 µM; in the test with NCI-H661 it was 3.09 µM; in the test on A549 it was 5.31 µM; with U-937, 0.29 µM.

Regarding `O=C(CCCCCCc1nc(-c2cccc([N+](=O)[O-])c2)no1)NO`, the IC50 at Histone deacetylase 2 was 1.56 µM; at Histone deacetylase 1, 0.35 µM; on Histone deacetylase 8, 2.38 µM; in the test with NCI-H661, 16.1 µM; with A549, 10.8 µM; in the test with U-937, 1.16 µM.

Regarding `O=C(CCCCCCc1nc(-c2cccs2)no1)NO`, the IC50 at Histone deacetylase 2 is 0.51 µM; on Histone deacetylase 1, 0.12 µM; at Histone deacetylase 8, 1.92 µM; with NCI-H661, 9.46 µM; in the test with A549 it was 4.37 µM; in the test with U-937 it was 0.32 µM.

Take `O=C(CCCCCCc1nc(-c2cccnc2)no1)NO`: the 50% inhibitory concentration (IC50) on Histone deacetylase 2 amounted to 0.39 µM; at Histone deacetylase 1, 0.08 µM; at Histone deacetylase 8, 1.83 µM; in the test with NCI-H661, 6.02 µM; in the test with A549, 5.34 µM; in the test with U-937 it was 0.35 µM.

On to `Nc1ccccc1NC(=O)CCCCCCc1nc(-c2ccccc2)no1`, for which the 50% inhibitory concentration (IC50) at Histone deacetylase 2 was 0.73 µM; at Histone deacetylase 1, 0.21 µM; at Histone deacetylase 8 it was more than 10 µM; with NCI-H661, 0.96 µM; with A549, 23.9 µM; in the test on U-937, 0.73 µM.

Consider `Cc1ccc(-c2noc(CCCCCCC(=O)Nc3ccccc3N)n2)cc1`, for which the concentration for half-maximal inhibition (IC50) on Histone deacetylase 2 came out at 0.68 µM; at Histone deacetylase 1, 0.14 µM; at Histone deacetylase 8, 8.39 µM; in the test with NCI-H661 it was 0.41 µM; in the test on A549 it was 9.17 µM; with U-937, 0.46 µM.

Consider `COc1ccc(-c2noc(CCCCCCC(=O)Nc3ccccc3N)n2)cc1`, for which the IC50 is 3.85 µM at Histone deacetylase 2; 0.91 µM on Histone deacetylase 1; more than 10 µM at Histone deacetylase 8; 7.99 µM with NCI-H661; 19.5 µM in the test with A549; 2.69 µM with U-937.

Consider `Nc1ccccc1NC(=O)CCCCCCc1nc(-c2ccc(C(F)(F)F)cc2)no1`, for which the 50% inhibitory concentration (IC50) on Histone deacetylase 2 is more than 10 µM; on Histone deacetylase 1, 3.04 µM; at Histone deacetylase 8, more than 10 µM; in the test with NCI-H661, 29.8 µM; in the test on A549, more than 100 µM; in the test on U-937, 5.28 µM.

Regarding `Nc1ccccc1NC(=O)CCCCCCc1nc(-c2ccc(F)cc2)no1`, the IC50 is 2.57 µM on Histone deacetylase 2; 0.88 µM on Histone deacetylase 1; more than 10 µM at Histone deacetylase 8; 9.53 µM in the test on NCI-H661; 31.2 µM in the test on A549; 3.08 µM with U-937.

Turning to `Nc1ccccc1NC(=O)CCCCCCc1nc(-c2ccc(Cl)cc2)no1`, the IC50 at Histone deacetylase 2 is 6.29 µM; at Histone deacetylase 1 it was 1.56 µM; on Histone deacetylase 8, more than 10 µM; with NCI-H661 it was 11.2 µM; in the test with A549 it was 13.8 µM; in the test on U-937 it was 4.36 µM.

As for `Nc1ccccc1NC(=O)CCCCCCc1nc(-c2ccccc2Cl)no1`, the concentration for half-maximal inhibition (IC50) on Histone deacetylase 2 was more than 10 µM; on Histone deacetylase 1, 4.13 µM; at Histone deacetylase 8 it was more than 10 µM; in the test on NCI-H661, 8.31 µM; in the test with A549, more than 100 µM; in the test on U-937 it was 6.91 µM.

Turning to `Nc1ccccc1NC(=O)CCCCCCc1nc(-c2ccc([N+](=O)[O-])cc2)no1`, the IC50 is more than 10 µM at Histone deacetylase 2; 8.67 µM at Histone deacetylase 1; more than 10 µM at Histone deacetylase 8; more than 100 µM in the test on NCI-H661; more than 100 µM in the test on A549; 10.2 µM with U-937.

For `Nc1ccccc1NC(=O)CCCCCCc1nc(-c2cccc([N+](=O)[O-])c2)no1`, the half-inhibitory concentration (IC50) on Histone deacetylase 2 is 5.19 µM; at Histone deacetylase 1, 0.82 µM; on Histone deacetylase 8 it was more than 10 µM; in the test on NCI-H661 it was 7.29 µM; in the test with A549, 20.2 µM; in the test with U-937 it was 2.15 µM.

On to `Nc1ccccc1NC(=O)CCCCCCc1nc(-c2cccs2)no1`, for which the half-inhibitory concentration (IC50) at Histone deacetylase 2 is 2.87 µM; on Histone deacetylase 1, 0.76 µM; at Histone deacetylase 8, more than 10 µM; in the test with NCI-H661, 6.18 µM; in the test on A549, 28.7 µM; in the test with U-937, 1.59 µM.

As for `Nc1ccccc1NC(=O)CCCCCCc1nc(-c2cccnc2)no1`, the IC50 was 3.16 µM on Histone deacetylase 2; 1.05 µM at Histone deacetylase 1; more than 10 µM at Histone deacetylase 8; 15.4 µM with NCI-H661; more than 100 µM in the test with A549; 2.07 µM with U-937.

`O=C(CCCCCCc1nc(-c2ccccc2)no1)C(F)(F)F`: the IC50 on Histone deacetylase 2 turned out to be 1.05 µM; on Histone deacetylase 1, 5.32 µM; on Histone deacetylase 8, 0.76 µM; in the test on NCI-H661 it was 0.52 µM; with A549, 7.68 µM; in the test on U-937, 0.41 µM.

`Cc1ccc(-c2noc(CCCCCCC(=O)C(F)(F)F)n2)cc1`: the IC50 on Histone deacetylase 2 was 7.32 µM; at Histone deacetylase 1, more than 10 µM; at Histone deacetylase 8, 3.19 µM; with NCI-H661 it was 18.7 µM; with A549, more than 100 µM; in the test on U-937, 3.73 µM.

In the case of `COc1ccc(-c2noc(CCCCCCC(=O)C(F)(F)F)n2)cc1`, the half-inhibitory concentration (IC50) at Histone deacetylase 2 worked out at 4.53 µM; at Histone deacetylase 1, 9.63 µM; at Histone deacetylase 8, 1.86 µM; in the test on NCI-H661, 5.05 µM; in the test on A549 it was 35.9 µM; with U-937 it was 1.17 µM.

Take `O=C(CCCCCCc1nc(-c2ccc(C(F)(F)F)cc2)no1)C(F)(F)F`: the IC50 on Histone deacetylase 2 came to 2.79 µM; at Histone deacetylase 1, 8.25 µM; at Histone deacetylase 8, 1.03 µM; in the test on NCI-H661 it was 6.39 µM; in the test on A549, 28.8 µM; with U-937 it was 1.96 µM.

With `O=C(CCCCCCc1nc(-c2ccc(F)cc2)no1)C(F)(F)F`, the concentration for half-maximal inhibition (IC50) on Histone deacetylase 2 is more than 10 µM; at Histone deacetylase 1 it was more than 10 µM; at Histone deacetylase 8, 7.65 µM; with NCI-H661, 12.7 µM; in the test on A549 it was more than 100 µM; in the test on U-937, 2.35 µM.

For `O=C(CCCCCCc1nc(-c2ccc(Cl)cc2)no1)C(F)(F)F`, the half-inhibitory concentration (IC50) on Histone deacetylase 2 was 8.56 µM; at Histone deacetylase 1, more than 10 µM; at Histone deacetylase 8, 2.08 µM; in the test on NCI-H661 it was 11.9 µM; with A549 it was 18.5 µM; in the test on U-937, 4.67 µM.

With `O=C(CCCCCCc1nc(-c2ccc([N+](=O)[O-])cc2)no1)C(F)(F)F`, the IC50 on Histone deacetylase 2 is 8.15 µM; at Histone deacetylase 1, more than 10 µM; at Histone deacetylase 8, 3.17 µM; with NCI-H661, 17.5 µM; in the test on A549 it was more than 100 µM; in the test on U-937, 3.68 µM.

For the molecule `O=C(CCCCCCc1nc(-c2cccc([N+](=O)[O-])c2)no1)C(F)(F)F`, the IC50 came out at 0.92 µM at Histone deacetylase 2; 3.98 µM at Histone deacetylase 1; 0.83 µM on Histone deacetylase 8; 6.43 µM with NCI-H661; 9.58 µM in the test with A549; 0.56 µM with U-937.

In the case of `Nc1ccccc1NC(=O)c1ccc(CNC(=O)OCc2cccnc2)cc1` [ENTINOSTAT], 0.55 µM corresponded to half-maximal inhibition in the test with U-937 (IC50).

As usually defined, the IC50 is the point on the concentration scale where inhibition reaches its midpoint.
